System: subjects with advanced medical illness and opioid-induced constipation
Experiment: Study 2: double-blind, randomized, placebo-controlled study of subcutaneous MNTX (fixed dose)
Type: in vivo, human
Method: A double-blind, randomized, placebo-controlled study of subcutaneous MNTX was conducted in subjects with advanced medical illness and a current history of opioid-induced constipation. To satisfy eligibility criteria for enrollment, subjects were required to be on stable doses of laxatives and opioid analgesics. In the context of the study, a stable dose of opioid analgesics was defined as no reduction in the dose of opioid analgesic of ≥50% for at least three days before the first dose of MNTX. A stable dose of laxatives was defined as having a standing laxative order (and not PRN, or as-needed) for at least three days before the first dose of MNTX. A diagnosis of constipation was provided if the subject had (a) fewer than 3 bowel movements during the previous week by history and no clinically notable laxation in the 24 hours before the first dose of MNTX, or (b) no clinical notable laxation in the 48 hours before the first dose of MNTX.
Eligible subjects were randomized to receive MNTX or placebo every other day during a 14-day, double-blind period. Subjects weighing 38 kg to <62 kg received 0.4 mL SC MNTX (8 mg) or equal volume of placebo. Subjects weighing ≥62 kg received 0.6 mL SC MNTX (12 mg) or equal volume of placebo. Injections were administered subcutaneously in either the shoulder area, buttocks, abdomen, thighs or extremities, and rescue-laxatives, enemas or manual disimpactions were not administered within 4 hours before or after each dose of test article.
The endpoint assessed was the proportion of subjects with rescue-free laxation response within 4 hours after at least two of the first four doses. Two hundred and twenty-nine (229) subjects were enrolled and evaluated, including 151 patients with advanced cancers and 78 patients with other advanced illness (e.g., cardiovascular, pulmonary or neurologic disorders). Of which 229 subjects which enrolled, 113 were randomized to the placebo group and 116 were randomized to the MNTX treatment group. Of the patients who completed the double-blind phase, 142 (placebo 69, MNTX 73) elected to proceed with a 10-week open label phase of subcutaneous MNTX at PRN dosing.

C[N@+]1(CC2CC2)CC[C@]23c4c5ccc(O)c4O[C@H]2C(=O)CC[C@@]3(O)[C@H]1C5.[Br-] [MNTX, (R)—N-(cyclopropylmethyl) noroxymorphone methobromide]
subjects with rescue-free laxation response within 4 hours after at least 2 of the first 4 doses (ITT population, first week, 8 or 12 mg SC QOD): 62.9%
number of rescue-free laxations within 24 hour post dosing per week (Week 1): 4.9
number of total laxations within 24 hour post dosing per week (Week 1): 4.9
number of rescue-free laxations within 24 hour post dosing per week (Week 2): 3.2
number of total laxations within 24 hour post dosing per week (Week 2): 3.2
improvement in the stool symptoms domain of the PAC-SYM (compared with the placebo group, p=0.0920): more pronounced
subjects who used enemas (double-blind period): 17%
subjects who used rescue laxatives (double-blind period): 27%
subjects who required manual disimpaction (double-blind period, either group): < 5%
opioid use (effect of MNTX administration): not affected
efficacy versus placebo for the primary and all secondary efficacy endpoints (fixed doses 8 mg or 12 mg SC QOD): statistically superior to placebo
median time to first rescue-free laxation after the first dose (in vivo): 0.8 h
subjects with rescue-free laxation within 4 hours after at least 4 of the maximum 7 doses (in vivo): 62.2%
subjects with rescue-free laxation within 4 hours of the first dose (in vivo): 69.8%
